Results taken from patent publication US20260272907A1, “Therapeutic Tyrosine Kinase Inhibitors for Multiple Sclerosis” (Principia Biopharma Inc., priority 2022, published 2026).

Test system: patients with relapsing multiple sclerosis
Assay: Phase 2b dose-finding study: adverse events (TEAEs, SAEs, AESIs), safety population
Details: for Proportion of participants with TEAEs: BTK inhibitor treatment period (12 weeks); for Adverse event: Accidental overdose / Adverse event: Alanine aminotransferase increased / Adverse event: Alopecia / Adverse event: Back pain / Adverse event: Gastroenteritis / Adverse event: Headache / Adverse event: Muscle spasticity / Adverse event: Nasopharyngitis / Adverse event: Oropharyngeal pain / Adverse event: Peripheral edema / Adverse event: Respiratory tract infection / Adverse event: Upper respiratory tract infection: 12 weeks treatment
[1] = 15 mg, 12-week treatment period
[2] = 30 mg, 12-week treatment period
[3] = 60 mg, 12-week treatment period
[4] = All (N = 130), BTK inhibitor treatment period, safety population
[5] = All Dose Groups (N = 130), Weeks 1 to 12
[6] = BTK inhibitor 5 (N = 16), Weeks 1 to 4
[7] = BTK inhibitor 5 (N = 33), BTK inhibitor treatment period, safety population
[8] = BTK inhibitor 15 (N = 16), Weeks 1 to 4
[9] = BTK inhibitor 15 (N = 32), BTK inhibitor treatment period, safety population
[10] = BTK inhibitor 30 (N = 16), Weeks 1 to 4
[11] = BTK inhibitor 30 (N = 33), BTK inhibitor treatment period, safety population
[12] = BTK inhibitor 60 (N = 16), Weeks 1 to 4
[13] = BTK inhibitor 60 (N = 32), BTK inhibitor treatment period, safety population
[14] = BTKi 5 mg (N = 16), Weeks 1 to 4
[15] = BTKi 5 mg (n = 33), Weeks 1 to 12

## C=CC(=O)N1CCC[C@@H](n2c(=O)n(-c3ccc(Oc4ccccc4)cc3)c3c(N)nccc32)C1 [the BTK inhibitor, (R)-1-(1-acryloylpiperidin-3-yl)-4-amino-3-(4-phenoxyphenyl)-1H-imidazo[4,5-c]pyridin-2(3H)-one]
5 mg, 12-week treatment period
  Alanine aminotransferase increased (TEAE): 1
  Alopecia (TEAE): 1
  Back pain (TEAE): 1
  Gastroenteritis (TEAE): 1
  Headache (TEAE): 1
  Nasopharyngitis (TEAE): 1
  Oedema peripheral (TEAE): 2
  Oropharyngeal pain (TEAE): 1
  Upper respiratory tract infection (TEAE): 2
5 mg
  Proportion of participants with TEAEs: 57.6%
5 mg, Weeks 1 to 4
  Headache (TEAE): 3 cases
  Nausea (TEAE): 2 cases
  Proportion of participants who experienced TEAEs: 31.3%
[1]
  Alopecia (TEAE): 1
  Back pain (TEAE): 1
  Headache (TEAE): 3
  Respiratory tract infection (TEAE): 1
  Upper respiratory tract infection (TEAE): 2
15 mg
  Proportion of participants with TEAEs: 53.1%
15 mg, Weeks 1 to 4
  Headache (TEAE): 2 cases
  Proportion of participants who experienced TEAEs: 18.8%
30 mg treatment period
  AESIs (alanine aminotransferase increased >3×ULN): 1
[2]
  Alanine aminotransferase increased (TEAE): 1
  Back pain (TEAE): 2
  Headache (TEAE): 1
  Muscle spasticity (TEAE): 1
  Nasopharyngitis (TEAE): 1
  Oropharyngeal pain (TEAE): 1
  Respiratory tract infection (TEAE): 1
  Upper respiratory tract infection (TEAE): 1
30 mg
  Proportion of participants with TEAEs: 54.5%
30 mg, Weeks 1 to 4
  Nausea (TEAE): 1 cases
  Proportion of participants who experienced TEAEs: 12.5%
60 mg group, all other TEAEs mild or moderate
  Severe TEAEs: one
60 mg treatment period
  AESIs (alanine aminotransferase increased >3×ULN): 1
60 mg, Cohort 1, about 8 weeks after starting treatment
  Treatment-emergent SAEs (MS relapse): One
[3]
  Accidental overdose (TEAE): 3
  Alanine aminotransferase increased (TEAE): 1
  Alopecia (TEAE): 1
  Gastroenteritis (TEAE): 2
  Headache (TEAE): 4
  Muscle spasticity (TEAE): 2
  Nasopharyngitis (TEAE): 3
  Oedema peripheral (TEAE): 2
  Oropharyngeal pain (TEAE): 1
  Respiratory tract infection (TEAE): 1
  Upper respiratory tract infection (TEAE): 1
60 mg
  Proportion of participants with TEAEs: 50.0%
60 mg, Weeks 1 to 4
  Headache (TEAE): 1 cases
  Proportion of participants who experienced TEAEs: 31.3%
5-60 mg
  Correlation between dose administered and number of TEAEs: no direct correlation
5-60 mg once daily, over the 12 weeks of treatment
  Tolerability: well-tolerated
[4]
  AESI: Alanice aminotransferase increased: 2 (1.5) n (%)
  AESI: Investigations: 2 (1.5) n (%)
  Any AESI: 2 (1.5) n (%)
  Participants with any TEAE: 69 (53.1) n (%)
  Participants with any TEAE leading to death: 0 n (%)
  Participants with any TEAE leading to study treatment discontinuation: 0 n (%)
  Participants with any severe TEAE: 1 (0.8) n (%)
  Participants with any treatment emergent SAE: 1 (0.8) n (%)
  Participants with any treatment-related TEAE: 15 (11.5) n (%)
  Participants with study discontinuation due to any TEAE: 0 n (%)
  Participants with treatment emergent SAE(s): Any class: 1 (0.8) n(%)
  Participants with treatment emergent SAE(s): Multiple sclerosis relapse: 1 (0.8) n(%)
  Participants with treatment emergent SAE(s): NERVOUS SYSTEM DISORDERS: 1 (0.8) n(%)
All (N = 130), Weeks 1 to 4
  Participants with any TEAE leading to death: 0 n (%)
  Participants with any TEAE leading to study treatment discontinuation: 0 n (%)
  Participants with any severe TEAE: 0 n (%)
  Participants with any treatment emergent SAE: 0 n (%)
  Participants with study discontinuation due to any TEAE: 0 n (%)
All Dose Groups (N = 130)
  Adverse event: Accidental overdose: 3 (2%)
  Adverse event: Alanine aminotransferase increased: 3 (2%)
  Adverse event: Alopecia: 3 (2%)
  Adverse event: Back pain: 4 (3%)
  Adverse event: Gastroenteritis: 3 (2%)
  Adverse event: Headache: 9 (7%)
  Adverse event: Muscle spasticity: 3 (2%)
  Adverse event: Nasopharyngitis: 5 (4%)
  Adverse event: Oropharyngeal pain: 3 (2%)
  Adverse event: Peripheral edema: 4 (3%)
  Adverse event: Respiratory tract infection: 3 (2%)
  Adverse event: Upper respiratory tract infection: 6 (5%)
[5]
  AE leading to death: 0 n (%)
  AE leading to study discontinuation: 0 n (%)
  Any AE (4 weeks vs. placebo 12 weeks): 70 (53.8) n (%)
  Any AE leading to study treatment discontinuation: 0 n (%)
  Any treatment-related AE: 17 (13.1) n (%)
  Serious AE: 1 (0.8) n (%)
[6]
  AESI: Alanice aminotransferase increased: 0 n (%)
  AESI: Investigations: 0 n (%)
  Any AESI: 0 n (%)
[7]
  AESI: Investigations: 0 n (%)
  Any AESI: 0 n (%)
BTK inhibitor 5, BTK inhibitor treatment period, safety population
  AESI: Alanice aminotransferase increased: 0 n (%)
[8]
  AESI: Alanice aminotransferase increased: 0 n (%)
  AESI: Investigations: 0 n (%)
  Any AESI: 0 n (%)
[9]
  AESI: Alanice aminotransferase increased: 0 n (%)
  AESI: Investigations: 0 n (%)
  Any AESI: 0 n (%)
[10]
  AESI: Alanice aminotransferase increased: 0 n (%)
  AESI: Investigations: 0 n (%)
  Any AESI: 0 n (%)
[11]
  AESI: Alanice aminotransferase increased: 1 (3.0) n (%)
  AESI: Investigations: 1 (3.0) n (%)
  Any AESI: 1 (3.0) n (%)
[12]
  AESI: Alanice aminotransferase increased: 0 n (%)
  AESI: Investigations: 0 n (%)
  Any AESI: 0 n (%)
[13]
  AESI: Alanice aminotransferase increased: 1 (3.1) n (%)
  AESI: Investigations: 1 (3.1) n (%)
  Any AESI: 1 (3.1) n (%)
BTK inhibitor treatment period, safety population
  Participants with any TEAE: 18 (54.5) n (%)
[14]
  AE leading to death: 0
  AE leading to study discontinuation: 0
  Any AE leading to study treatment discontinuation: 0
  Serious AE: 0
BTKi 5 mg (n = 33)
  Adverse event: Accidental overdose: 0%
  Adverse event: Alanine aminotransferase increased: 1 (3%)
  Adverse event: Alopecia: 1 (3%)
  Adverse event: Back pain: 1 (3%)
  Adverse event: Gastroenteritis: 1 (3%)
  Adverse event: Headache: 1 (3%)
  Adverse event: Muscle spasticity: 0%
  Adverse event: Nasopharyngitis: 1 (3%)
  Adverse event: Oropharyngeal pain: 1 (3%)
  Adverse event: Peripheral edema: 2 (6%)
  Adverse event: Respiratory tract infection: 0%
  Adverse event: Upper respiratory tract infection: 2 (6%)
[15]
  AE leading to death: 0 n (%)
  AE leading to study discontinuation: 0 n (%)
  Any AE (4 weeks vs. placebo 12 weeks): 19 (57.6) n (%)
  Any AE leading to study treatment discontinuation: 0 n (%)
